Results: article PMC10545790
Values joined by “and” are separate entries in the source; they are usually repeats but may differ in a detail not shown here. Equal values may be shown once. “Also recorded” adds a separate entry of the source. Where a name gives a salt, the structure may show the parent alone.

Key:
[1] = test system: human hepatocellular carcinoma cells HepG2; assay: High Content Imaging of HepG2 cells: nuclei count, necrosis (PI), apoptosis (caspase 3/7); type: cell-based; design: Nuclei Area wv1 / Mean nuclei area: unit not given here; details: for Mean nuclei area / Mean nuclei intensity / % of early apoptotic cells (PI negative, caspase positive) / % of necrotic and late apoptotic cells (PI positive) / All Targets.PI negative.casp positive (%) / All Targets.PI positive (%) / Nuclei Area wv1 / Nuclei Intensity wv1 / Nuclei Count wv1 / % of necrotic and late apoptotic cells (PI positive); cell toxicity level / inhibition of cell proliferation (in words) / cytotoxic effects (in words) / effect on cell proliferation (in words): HepG2, 48 h; for Mean nuclei intensity: Hoechst 33342; for % of early apoptotic cells (PI negative, caspase positive) / % of necrotic and late apoptotic cells (PI positive) / % of necrotic and late apoptotic cells (PI positive); cell toxicity level: mean of 3 wells; for All Targets.PI negative.casp positive (%) / All Targets.PI positive (%) / Nuclei Area wv1 / Nuclei Intensity wv1: single well; for Nuclei Count wv1: single well (concentration from plate map the 5th table); for inhibition of cell proliferation (in words): 50 μM, nuclei count; for effect on HepG2 cell death / apoptosis compared with Vorinostat (in words): HepG2, 48 h, 1, 5 and 50 μM; for cytotoxic effects (in words) / effect on cell proliferation (in words): 1 and 5 μM
Description: proliferation and cell death mechanisms, using High Content Imaging assay. The following parameters were assessed: nuclei count to measure inhibiting of the proliferation; cell membrane permeability to assess general cytotoxicity and necrosis; caspase activation to test apoptosis. […]
Human hepatocellular carcinoma HepG2 cell line was used to test biological action of Vorinostat and its analogues. Cell line was obtained from Leibniz Institute DSMZ - German Collection of Microorganisms and Cell Cultures. Cells were cultured in DMEM medium (Hyclone, Cat# SH30003.04) supplemented with 10% fetal bovine serum (Sigma-Aldrich, Cat# F7524), 100 units/mL penicillin and 100 μg/mL streptomycin (Sigma-Aldrich, Cat# P4333).
Before plating, the cells were first washed with PBS and then trypsinized with 0.01% trypsin solution (Sigma-Aldrich, Cat# T4174) in DPBS. The appropriate volume of culture medium was placed in a flask to stop further trypsinization, then the cells were centrifugated at 200 x g for 4 min, resuspended in fresh complete medium and counted using a counting chamber after being stained with Trypan Blue. […]
μL total volume per well and incubated at 37 °C/5%CO2/95%RH overnight. Vorinostat and test compounds were dissolved in 100% DMSO at a concentration of 10 mM and stored at -20 °C as single-use aliquots. Next day 20 μL of medium with compounds was added to the cells to the final DMSO concentration […]. Treatment for 48 hours was performed under growth conditions.
Compounds were assessed at the final concentrations 1, 5 and 50 μM (each in triplicates - 3 wells, 9 fields of view per well). Staining for nuclei, apoptotic cells with activated caspase 3/7 and dead […]
cells with permeabilized membrane was performed for 30 min under growth conditions in staining […]
3/7 Detection Reagent (Invitrogen, Cat# C10423) and 1 μM Propidium Iodide (Invitrogen, Cat# P3566) in medium complete. The cells were imaged with InCell Analyzer 6500, 20x obj. Image […]
Data were analyzed in GraphPad Prism 9.
Supplementary Fig. 16. Workflow of multiplexed cells staining.
Multiplexed staining allows to test cell toxicity and distinguish between necrosis and apoptosis within one single experiment (Supplementary Fig. 16).
CellEvent Caspase-3/7 Green Detection Reagent labels cells with activated caspases. Propidium Iodide (PI) labels dead cells with permeabilized membrane. Hoechst-positive cells were counted to assess the % of cell toxicity. PI-positive cells are dead – this is a fraction of necrotic and late apoptotic cells, used for assessing of cytotoxicity/necrosis. Early apoptotic cells are caspase-positive, PI-negative because their membrane isn’t compromised yet. Percentages of cells of certain […]
background and comparing with overall number of cells.

in vitro = details: both, human
[2] = Thermal and chemical stability; type: physicochemical
From the text: We also examined the thermal and chemical stability of the synthesized 2-oxabicyclo[2.2.2]octanes. As representative examples, we selected three molecules: isomeric acids 47, 54, and amine 52. All 2-oxabicyclo[2.2.2]octanes were crystalline solids that were stable in air. We stored them in stock at room temperature in closed vials and observed no changes according to ^1H NMR after one year. […] Treatment of the selected 2-oxabicyclo[2.2.2]octanes with aq. 1 M HCl, or aq.

[3] = microsomes, pH 7.4, % Remaining, Mean of 2

Compound | Mean nuclei area ([1]; 1 uM) | Mean nuclei intensity ([1]; 1 uM) | % of early apoptotic cells (PI negative, caspase positive) ([1]; 1 uM) | % of necrotic and late apoptotic cells (PI positive) ([1]; 1 uM) | All Targets.PI negative.casp positive (%) ([1]; 1 uM) | All Targets.PI positive (%) ([1]; 1 uM) | Nuclei Area wv1 ([1]; 1 uM) | Nuclei Count wv1 ([1]; 1 uM) | Mean nuclei area ([1]; 5 uM) | Mean nuclei intensity ([1]; 5 uM) | % of early apoptotic cells (PI negative, caspase positive) ([1]; 5 uM) | % of necrotic and late apoptotic cells (PI positive) ([1]; 5 uM) | All Targets.PI negative.casp positive (%) ([1]; 5 uM) | All Targets.PI positive (%) ([1]; 5 uM) | Nuclei Area wv1 ([1]; 5 uM) | Nuclei Intensity wv1 ([1]; 5 uM) | Nuclei Count wv1 ([1]; 5 uM) | Mean nuclei area ([1]; 50 uM) | Mean nuclei intensity ([1]; 50 uM) | % of early apoptotic cells (PI negative, caspase positive) ([1]; 50 uM) | also measured
O=C(CCCCCCC(=O)Nc1ccccc1)NO [Vorinostat, reference compound] | 133.3 | 3539.0 RFU | 1.4% | 2.0% | 1.09% and 1.685% and 1.464% | 1.46% and 2.372% and 2.236% | 132.596 and 129.806 and 137.55 | 5137 and 4806 and 4919 | 133.4 | 4444.0 RFU | 7.2% | 10.4% | 8.109% and 5.087% and 8.342% | 11.8095% and 7.619% and 11.7647% | 135.125 and 131.698 and 133.281 | 4725.81 and 3784.72 and 4822.36 | 3675 and 4187 and 3740 | 122.1 | 1952.0 RFU | 12.2% | Nuclei Intensity wv1 ([1]; 1 uM): 3323.23 and 3018.81 and 4275.36; % of necrotic and late apoptotic cells (PI positive); cell toxicity level ([1]; 50 uM): 77% and 77.5%; All Targets.PI negative.casp positive (%) ([1]; 50 uM): 12.2839% and 13.7268% and 10.5715%; All Targets.PI positive (%) ([1]; 50 uM): 77.0504% and 75.6692% and 79.9029%; Nuclei Area wv1 ([1]; 50 uM): 120.16 and 121.222 and 124.941; Nuclei Intensity wv1 ([1]; 50 uM): 1713 and 2196.3 and 1947.17; Nuclei Count wv1 ([1]; 50 uM): 2719 and 2914 and 2677
O=C(CCCCCCC(=O)NC12CCC(CC1)CC2)NO [Compound 89] | 117.0 | 3374.0 RFU | 0.444% | 0.6% | 0.4175% and 0.3796% and 0.5358% | 0.5526% and 0.5457% and 0.7144% | 115.697 and 116.603 and 118.647 | 8143 and 8429 and 8399 | 120.9 | 4138.0 RFU | 0.563% | 0.9% | 0.4763% and 0.5673% and 0.6459% | 0.9922% and 0.9996% and 0.6321% | 120.224 and 120.771 and 121.802 | 4041.68 and 3853.68 and 4517.41 | 7559 and 7403 and 7277 | 115.2 | 2088.0 RFU | 9.5% | % of necrotic and late apoptotic cells (PI positive); cell toxicity level ([1]; 50 uM): 67% and 67.1%; inhibition of cell proliferation (in words) [1]: inhibited cell proliferation at 50 μM concentration to the same level as Vorinostat; All Targets.PI negative.casp positive (%) ([1]; 50 uM): 10.5117% and 9.102% and 8.933%; All Targets.PI positive (%) ([1]; 50 uM): 65.2916% and 67.7168% and 68.1969%; Nuclei Area wv1 ([1]; 50 uM): 113.454 and 115.571 and 116.43; Nuclei Intensity wv1 ([1]; 50 uM): 1984.47 and 1672.21 and 2607.1; Nuclei Count wv1 ([1]; 50 uM): 2521 and 2571 and 2418; effect on HepG2 cell death / apoptosis compared with Vorinostat (in words) [1]: activity profile was the closest to Vorinostat; also recorded: active; cytotoxic effects (in words) [1]: did not demonstrate any significant cytotoxic effects; effect on cell proliferation (in words) [1]: did not have any significant effects
Cc1ccc(NC(=O)c2ccc(CN3CCN(C)CC3)cc2)cc1Nc1nccc(-c2cccnc2)n1 [Imatinib] |  |  |  |  |  |  |  |  |  |  |  |  |  |  |  |  |  |  |  |  | remaining at 40 min, 2 µM (in vitro; microsomes, pH 7.4, % Remaining without cofactor, Mean of 2): 88%; remaining at 7 min, 2 µM (in vitro; [3]): 109%; remaining at 0.25 h, 2 µM (in vitro; [3]): 93%; remaining at 25 min, 2 µM (in vitro; [3]): 82%; remaining at 40 min, 2 µM (in vitro; [3]): 66%
O=C(CCCCCCC(=O)NC12CCC(CC1)OC2)NO [Compound 88] | 117.1 | 2764.0 RFU | 0.344% | 0.9% | 0.2791% and 0.3975% and 0.3542% | 1.031% and 0.9564% and 0.6961% | 117.054 and 118.289 and 116.039 | 8241 and 8051 and 8188 | 118.3 | 3381.0 RFU | 0.463% | 0.8% | 0.548% and 0.4031% and 0.4377% | 0.8821% and 0.8306% and 0.721% | 119.866 and 117.043 and 117.864 | 3478.61 and 2783.26 and 3882.1 | 7482 and 8187 and 7767 | 129.6 | 3968.0 RFU | 12.0% | Nuclei Intensity wv1 ([1]; 1 uM): 2311.93 and 2195.12 and 3784.44; % of necrotic and late apoptotic cells (PI positive); cell toxicity level ([1]; 50 uM): 18% and 18.5%; inhibition of cell proliferation (in words) [1]: inhibited cell proliferation at 50 μM concentration to the same level as Vorinostat; All Targets.PI negative.casp positive (%) ([1]; 50 uM): 11.5569% and 11.4167% and 12.9144%; All Targets.PI positive (%) ([1]; 50 uM): 19.3713% and 17.5096% and 18.5033%; Nuclei Area wv1 ([1]; 50 uM): 130.383 and 125.337 and 133.198; Nuclei Intensity wv1 ([1]; 50 uM): 4177.18 and 3221.5 and 4506.24; Nuclei Count wv1 ([1]; 50 uM): 3340 and 3381 and 3167; effect on HepG2 cell death / apoptosis compared with Vorinostat (in words) [1]: active; cytotoxic effects (in words) [1]: did not demonstrate any significant cytotoxic effects; effect on cell proliferation (in words) [1]: did not have any significant effects
CC12CCC(CN)(CC1)OC2 [Compound 52] |  |  |  |  |  |  |  |  |  |  |  |  |  |  |  |  |  |  |  |  | chemical stability in acid ([2]; aq. 1 M HCl, room temperature, 1 h): no decomposition; chemical stability in base ([2]; aq. 1 M NaOH, room temperature, 1 h): no decomposition; thermal stability ([2]; heating at 100 °C for five minutes): remained stable; stability on storage ([2]; in air, room temperature, closed vials, one year, 1H NMR): no changes
CC(C)NCC(O)COc1cccc2ccccc12 (racemic) [Propranolol, (+,-) Propranolol hydrochloride] |  |  |  |  |  |  |  |  |  |  |  |  |  |  |  |  |  |  |  |  | remaining at 40 min, 2 µM (in vitro; [3]): 66%; half-life at 2 µM (in vitro; microsomes, pH 7.4, t1/2: half-time of a metabolic decomposition): 1.02 h; k el at 2 µM (in vitro; pH 7.4, kel (elimination constant)): 0.000183 s⁻¹
